Assay results reported in patent US5100907A, “Hydantoin esters” (Lonza, Inc., priority 1990, dated 1992).
Where two headings read alike, the source gives them in different places. Values belong to the compound of their own block, whether it stands above or below them.

How the values were obtained:
[1] = Physical properties of methylolated MHEDMH esters (I): viscosity; type: physicochemical; details: at 25° C.
[2] = Total available formaldehyde (TF) and free formaldehyde (FF) levels of esters (I); type: physicochemical; details: for FF/TF ratio: water
Text: Thus, whether the formaldehyde content is chemically bonded to the hydantoin moiety or is free formaldehyde (FF) in solution, e.g., in water as formaldehyde or methylene glycol [CH2 (OH)2 ], it remains available for biocidal action. Due to this direct relation, the weight percent TF in a given preparation of the ester (I), e.g. a cosmetic formulation, can be predicted accurately, regardless of the level of dilution.

[3] = Solubilities of esters in typical solvents / appearance of samples in water; type: physicochemical; details: 25° C.
[4] = Surface tension tests (cmc, Gibbs' Free Energy of Micellation); type: physicochemical; details: for ΔG°cmc (Gibbs' Free Energy of Micellation): calculated from cmc by Eq. 1, T=298° K.; for cmc (critical micelle concentration): ester/water solution
Procedure: Surface tension tests were conducted as to the relationship between the fatty acid aliphatic chain length, i.e. number of carbon atoms, in the esters (I), and their performance as surfactants. The length of the hydrophobic chain of a molecule is considered the major contributing factor to the critical micelle concentration (cmc) value of a surfactant. This value is obtained from surface tension measurement data. The lower the cmc, the more readily the material will form micelles.
The Gibbs' Free Energy of Micellation (ΔG°cmc) and the ΔG°cmc per --CH2 -- can be determined if the cmc is known.
The ΔG°cmc is a calculated value obtained by Equation 1.
ΔG°cmc =2.303RT(log cmc-log[water]) (Eq. 1)
The ΔG°cmc per --CH2 -- value is obtained from the slope of the straight line curve formed from a plot of ΔG°cmc versus the number of carbon atoms in the lipophilic chain.
The cmc values were based on surface tension tests conducted with a tensiometer (Cenco-DuNoug Precision Model #70535, direct reading model) to determine the upward surface tension at the liquid-air surface of the test ester/water solution. The methods used to calibrate the tensiometer, calculate the "correction factor" (used to correct for the difference between the apparent and true surface tension), and collect data, were conducted as described in the manual for the instrument. Sodium lauryl sulfate (SLS) and distilled water were used as reference samples.
On completing data collection, plots of the surface tension (dynes) versus -log of the concentration (mols/liter) were prepared, using only the "corrected" surface tension value, obtained by applying the noted "correction factor" in each case. The […] was found by multiplying the "apparent" surface tension by a calculated correction factor.
The critical micelle concentration (cmc) for each sample was determined by locating the point in the curve where the surface tension first begins to level off, per a known procedure.

[5] = HLB determination (weighted average method); type: physicochemical
Text: Hydrophilic-Lipophilic Balance or HLB is a means of associating the hydrophilic and lipophilic characteristics between two surfactants. A "weighted average" method was used to determine the HLB of the esters (I), and by comparison of the precursor ester (Ia), in which two emulsifiers of known HLB values along with the test ester were incorporated in a mixture of mineral oil and water. Evaluation and HLB determination of each of a series of prepared emulsion samples were effected by visual inspection.
The HLB of the mixture "m" is calculated from the sum of the HLB contributions of each surfactant, "a", "b", "c", per Equation 2 which describes a system of oil, water, and three surfactants.
Given that [HLB]m, [HLB]a, and [HLB]b, are known, and the ideal amount of "a", "b", and "c" to prepare a perfect emulsion has been determined, then by rearrangement of Eq. 2, the HLB of "c" can be calculated by Equation 3.
To obtain the HLB of the test ester as surfactant "c", a series of formulations was prepared in which the known surfactant sorbitan monostearate (SMS) as "a" and the known surfactant POE 20 sorbitan monostearate (POE 20 SMS) as "b" were varied in amount (wt. %) relative to each other at a constant amount (1 wt. %) of "c", until an optimum emulsion was obtained. Different combinations of "a" and "b" were used to vary the HLB of "c", for emulsifying a 40:56 (wt. %) mixture of paraffin oil and distilled water (totaling 96 wt. %).
To prepare the emulsions, surfactants "a", "b", and "c", and the paraffin oil were combined in a 150 ml beaker and heated slowly with agitation to 70°-80° C. The value of "X" in each formulation was predetermined by rearranging Eq. 3 to solve for X, and then inserting into the equation various [HLB]c values for the test ester (i.e., 2, 3, 4, 5, 6 . . . ). The [HLB]c values chosen reflected a range that would likely contain the actual HLB of the test ester. Hot distilled water (70°-80° C.) was then slowly added with agitation. The total weight of all these reagents was 100 grams. The resulting emulsion was allowed to cool, with continued agitation, until the temperature dropped below 30° C.
A series of emulsions for each test was prepared, one at a time, and then examined as a set. Each sample within the series was evaluated and graded according to the quality of the emulsion by visual examination of droplet size.

Emulsion stability tests = type: physicochemical; details: for Classification of Emulsion: 2% ester, 7% myristyl propionate, 91% water
Procedure: Emulsion stability tests were performed on the esters (I), and for comparison on the precursor esters (Ia), to determine the extent to which each stabilized a standardized solution of water and an oil, using a common procedure consisting of homogenizing a mixture containing the test ester (2%), myristyl propionate (7%), and water (91%). While two emulsifiers are normally used to prepare a cosmetic formulation, e.g. one with a high HLB and the other with a low HLB, the test method herein using only one emulsifier, i.e. the test ester, is fully indicative of the emulsifying attributes of these esters.
The tests were performed with emulsions (500 g), prepared by combining the test ester (10.0 g), myristyl propionate (35 g), and distilled water (455 g) in a container and homogenizing the contents for one minute, via a Kika-Werk Ultra-Turrax S D-45 homogenizer. The emulsions were poured into a one pound flint jar, capped, and periodically examined over a 55 day period.

[6] = Dispersion stability tests; type: physicochemical
Procedure: The dispersion stability tests were performed on the esters (I) to determine the extent each was able to disperse itself in an aqueous medium.
The dispersions were prepared by homogenizing a mixture of the test ester and water, after which repeated examination of the sample was effected for a period of 55 days. This test method is fully indicative of the dispersibility of these esters (I).
The dispersion tests were performed with the esters at 0.5% and 5.0% active levels in water, prepared by combining the test ester with distilled water, and homogenizing the mixture for one to three minutes, via a Kika-Werk Ultra-Turrax S D-45 homogenizer. The dispersions were poured into an eight ounce flint jar, capped, and periodically examined over a 55 day period.

Aspergillus niger = assay: Antimicrobial study against Aspergillus niger (mold); type: cell-based; details: methylolated C8/10 10,800 ppm, methylolated lauric 11,400 ppm, DMDMH 3,000 ppm, others 14,700 ppm
Procedure: (§1) The antimicrobial properties of typical esters (I) and (Ia) were tested by minimum inhibitory concentration (MIC) tests, along with certain known substances, against […] strains of organisms: a mold, Aspergillus niger; a gram-positive bacteria, Staphylococcus aureus; and two gram-negative bacteria, Escherichia coli and Pseudomonas aeruginosa. […] These tests were used to determine any effect on biocidal activity of the varying chain length of the ester.
(§2) The known substances, on which identical tests were also performed, included the biocide, dimethyloldimethylhydantoin or DMDMH (iv), and a series of three surfactants, i.e., the three common emulsifiers, sodium lauryl sulfate (SLS); ethylene glycol distearate (EGDS), in the form of the commercial product PEGOSPERSE 50 DS (Lonza Inc.); and polyoxyethylene 20 sorbitan monoleate (POE 20 SMO), in the form of the commercial product GLYCOSPERSE 0 20 (Lonza Inc.).
(§3) The tests entailed contaminating a preexisting micro-colony with a known quantity (ppm, concentration) of test material. Each colony was then examined periodically over a one week period. […] A test was deemed non-efficacious when there was no decrease in colony size. In an effort to avoid any possible solvent effect, the micro-study was conducted in a totally aqueous solvent system without use of any other solvent.

Staphylococcus aureus = assay: Antimicrobial study against Staphylococcus aureus (gram-positive bacteria); type: cell-based; details: methylolated C8/10 10,800 ppm, methylolated lauric 11,400 ppm, DMDMH 3,000 ppm, others 14,700 ppm
Procedure: as §1, §2, §3

Escherichia coli = assay: Antimicrobial study against Escherichia coli (gram-negative bacteria); type: cell-based; details: methylolated C8/10 10,800 ppm, methylolated lauric 11,400 ppm, DMDMH 3,000 ppm, others 14,700 ppm
Procedure: as §1, §2, §3

Pseudomonas aeruginosa = assay: Antimicrobial study against Pseudomonas aeruginosa (gram-negative bacteria); type: cell-based; details: methylolated C8/10 10,800 ppm, methylolated lauric 11,400 ppm, DMDMH 3,000 ppm, others 14,700 ppm
Procedure: as §1, §2, §3

[7] = test system: mold, and gram-positive and gram-negative bacteria; assay: Antimicrobial tests, overall biocidal effectiveness; type: cell-based; details: under the test conditions
Procedure: as §1, §2, §3

[8] = 1% active concentration in water

Viscosity [1]: 4,384 cts
Calculated TF [2, 8]: 0.123 Wt. %
Determined FF [2, 8]: 0.0199 Wt. %
Ratio FF/TF [2, 8]: 0.162
FF (free formaldehyde) ([2]; neat ester, Table 3): 0.6 Wt. %
TF (total available formaldehyde) ([2]; neat ester, Table 3): 12.3 Wt. %
FF/TF ratio ([2]; concentration 0.1%): 0.25
FF/TF ratio ([2]; concentration 1%): 0.20
FF/TF ratio ([2]; concentration levels >5%): about 0.15%
Solubility in isopropyl alcohol [3]: S (>10 g/100 g Solvent)
Solubility in mineral oil ([3]; grams, legend per 100 g Solvent): 3 g
solubility ([3]; water): > 100 mg/mL
ΔG°cmc (Gibbs' Free Energy of Micellation) [4]: -3.896 kcal/mol
cmc (critical micelle concentration) [4]: 7.24 × 10^-3 mol dm^-3
Average HLB [5]: 19.0
HLB Range [5]: 19-20
Average HLB ([5]; listed as acetate (I)): 19
Classification of Emulsion (Emulsion stability tests; 2 Hours after preparation): 2-Phase
Classification of Emulsion (Emulsion stability tests; 7 Days after preparation): 2-Phase
Classification of Emulsion (Emulsion stability tests; 22 Days after preparation): 2-Phase
Classification of Emulsion (Emulsion stability tests; 55 Days after preparation): 2-Phase
Classification of Dispersion ([6]; 0.5% active in water, 2 Hours): Dissolved
Classification of Dispersion ([6]; 0.5% active in water, 3 Days): Dissolved
Classification of Dispersion ([6]; 0.5% active in water, 13 Days): Dissolved
Classification of Dispersion ([6]; 0.5% active in water, 55 Days): Dissolved
Classification of Dispersion ([6]; 5.0% active in water, 2 Hours): Dissolved
Classification of Dispersion ([6]; 5.0% active in water, 3 Days): Dissolved
Classification of Dispersion ([6]; 5.0% active in water, 13 Days): Dissolved
Classification of Dispersion ([6]; 5.0% active in water, 55 Days): Dissolved
Structure (SMILES): CC(=O)OCCN1C(=O)N(CO)C(=O)C1(C)C [Acetic Methylolated Ester, 2-(3-hydroxymethyl-5,5-dimethyl-1,3-diazacyclopentane-2,4-dion-1-yl)-ethylester of acetic acid]
ability to stabilize emulsions (Emulsion stability tests): generally unable to stabilize an emulsion for more than two hours
emulsion quality, decreasing order of rank (Emulsion stability tests): cocoate, laurate>oleate,isostearate>stearate>C8/10 ester>acetate
dispersion quality, decreasing order of rank [6]: isostearate>oleate>cocoate>laurate>C8/10ester>>stearate>acetate

Structure (SMILES): CCCCCCCCCCCCCCCCCC(=O)OCCOC(=O)CCCCCCCCCCCCCCCCC [EGDS, ethylene glycol distearate, reference compound]
Colony Count (Aspergillus niger; Day 0): 2,000 × 1,000
Colony Count (Aspergillus niger; Day 1): 500 × 1,000
Colony Count (Aspergillus niger; Day 2): 300 × 1,000
Colony Count (Aspergillus niger; Day 3): 200 × 1,000
Colony Count (Aspergillus niger; Day 7): 700 × 1,000
Colony Count (Staphylococcus aureus; Day 0): 600 × 1,000
Colony Count (Staphylococcus aureus; Day 1): 350 × 1,000
Colony Count (Staphylococcus aureus; Day 2): TNC
Colony Count (Staphylococcus aureus; Day 3): TNC
Colony Count (Staphylococcus aureus; Day 7): 2,000 × 1,000
Colony Count (Escherichia coli; Day 0): 2,000 × 1,000
Colony Count (Escherichia coli; Day 1): TNC
Colony Count (Escherichia coli; Day 2): TNC
Colony Count (Escherichia coli; Day 3): TNC
Colony Count (Escherichia coli; Day 7): TNC
Colony Count (Pseudomonas aeruginosa; Day 0): 3,000 × 1,000
Colony Count (Pseudomonas aeruginosa; Day 1): TNC
Colony Count (Pseudomonas aeruginosa; Day 2): TNC
Colony Count (Pseudomonas aeruginosa; Day 3): 2,500 × 1,000
Colony Count (Pseudomonas aeruginosa; Day 7): TNC
biocidal effectiveness [7]: none of the three known long aliphatic chain containing emulsifiers, sodium lauryl sulfate, ethylene glycol distearate and POE 20 sorbitan monoleate, was effective as a biocide

Structure (SMILES): CCCCCCCCCCCCOS(=O)(=O)[O-].[Na+] [SLS, Sodium lauryl sulfate, reference compound]
ΔG°cmc ([4]; Table 6): -5.552 kcal/mol
ΔG°cmc (Gibbs' Free Energy of Micellation) [4]: -5.552 kcal/mol
cmc (critical micelle concentration) [4]: 4.4 × 10^-3 mol dm^-3
Colony Count (Aspergillus niger; Day 0): 600 × 1,000
Colony Count (Aspergillus niger; Day 1): 2,000 × 1,000
Colony Count (Aspergillus niger; Day 2): 300 × 1,000
Colony Count (Aspergillus niger; Day 3): 160 × 1,000
Colony Count (Aspergillus niger; Day 7): 200 × 1,000
Colony Count (Staphylococcus aureus; Day 0): 2,000 × 1,000
Colony Count (Staphylococcus aureus; Day 1): 3,000 × 1,000
Colony Count (Staphylococcus aureus; Day 2): TNC
Colony Count (Staphylococcus aureus; Day 3): 450 × 1,000
Colony Count (Staphylococcus aureus; Day 7): < 0.01 × 1,000
Colony Count (Escherichia coli; Day 0): 8,000 × 1,000
Colony Count (Escherichia coli; Day 1): 20 × 1,000
Colony Count (Escherichia coli; Day 2): TNC
Colony Count (Escherichia coli; Day 3): 160 × 1,000
Colony Count (Escherichia coli; Day 7): 60 × 1,000
Colony Count (Pseudomonas aeruginosa; Day 0): 4,100 × 1,000
Colony Count (Pseudomonas aeruginosa; Day 1): 500 × 1,000
Colony Count (Pseudomonas aeruginosa; Day 2): TNC
Colony Count (Pseudomonas aeruginosa; Day 3): 30 × 1,000
Colony Count (Pseudomonas aeruginosa; Day 7): 50 × 1,000
biocidal effectiveness [7]: none of the three known long aliphatic chain containing emulsifiers, sodium lauryl sulfate, ethylene glycol distearate and POE 20 sorbitan monoleate, was effective as a biocide
